The text below walks through data of patent US20120065195A1, “COMPOUNDS FOR TREATING NEURODEGENERATIVE DISEASES” (priority 2010, published 2012).

The test deals with T1, BACE1 (Homo sapiens, UniProt P56817).
T1 construct: endogenous in cells; host or cells: HEK-293 (stably transfected with wild type APP695 only)
As to the kind of experiment: Cellular BACE1 Inhibition Assay (in vitro cellular Amyloidβ 1-40 production assay, HTRF immunoassay). In kind it is cell-based. On the procedure:
The BACE inhibition properties of the compounds of the invention may be determined by the following in vitro cellular Amyloidβ 1-40 production assay.
Inhibition of Amyloidβ1-40 production was determined by incubating cells with compound for 48 hours and quantifying the level of Amyloidβ 1-40 using an HTRF immunoassay.
Materials and Methods: HEK-293 cells stably transfected with a DNA construct containing the coding sequence for the wild type APP695 sequence were grown in DMEM supplemented with 10% fetal bovine serum, penicillin/streptomycin and 150 μg/mL G418. Cells were plated in 96-well plates at 35,000 cells/well and allowed to attach for 8-12 hours. Media was changed to DMEM supplemented with 10% fetal bovine serum, penicillin/streptomycin 15 minutes prior to compound addition. Diluted compounds were then added at a final concentration of 0.5% DMSO. After 48 hours, 4 μL of media from each well was added to a corresponding well of a 384 well plate (Perkin Elmer Cat#6008280) containing the HTRF reagents. HTRF reagents were obtained from the CisBio Amyloidβ 1-40 peptide assay kit (Cat#62B40PEC) and were prepared as follows anti-peptide β (1-40)-Cryptate and anti-peptide β (1-40)-XL655 were stored in 2 plate aliquots at −80° C. Diluent and Reconstitution buffer were stored at 4° C. Aliquots of the two antibodies were diluted 1:100 with Reconstitution buffer, and this mixture was diluted 1:2 with Diluent. 12 μL of the reagent mixture was added to the required wells of the 384 well assay plate. The assay plate was incubated at 4° C. for 17 hours and then analyzed for fluorescence at 665 and 620 nm.
For orientation: Time-resolved FRET reads energy transfer from a long-lived donor to a nearby acceptor.

T1 sequence (P56817 46-501): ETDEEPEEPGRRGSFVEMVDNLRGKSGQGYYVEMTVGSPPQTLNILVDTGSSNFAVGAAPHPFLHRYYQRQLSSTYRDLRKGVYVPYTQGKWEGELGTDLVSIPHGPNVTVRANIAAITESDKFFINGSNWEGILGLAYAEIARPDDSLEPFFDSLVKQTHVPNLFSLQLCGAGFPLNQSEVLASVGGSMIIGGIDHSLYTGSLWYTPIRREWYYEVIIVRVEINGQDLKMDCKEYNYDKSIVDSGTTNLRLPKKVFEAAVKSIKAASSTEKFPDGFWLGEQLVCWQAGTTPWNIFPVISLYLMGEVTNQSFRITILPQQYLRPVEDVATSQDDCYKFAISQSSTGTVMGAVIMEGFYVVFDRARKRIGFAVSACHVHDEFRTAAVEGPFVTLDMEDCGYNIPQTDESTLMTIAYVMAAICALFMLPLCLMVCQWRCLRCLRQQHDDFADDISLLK

Broadly, the IC50 is the point on the concentration scale where inhibition reaches its midpoint. Read a high IC50 as a need for much substance. On to `CN1C(=O)C2(CCCc3ccc(-c4cncc(Cl)c4)cc32)N=C1N` (stereo not drawn) [Example 23, 2-amino-7′-(5-chloropyridin-3-yl)-1-methyl-3′,4′-dihydro-2′H-spiro[imidazole-4,1′-naphthalen]-5(1H)-one], for which the IC50 was determined as 28.5 nM.

Compound `CN1C(=O)C2(CC(C)(C)Cc3ccc(/C=C/C4CC4)cc32)N=C1N` (stereo not drawn) [Example 15, (E)-2-amino-7′-(2-cyclopropylvinyl)-1,3′,3′-trimethyl-3′,4′-dihydro-2′H-spiro[imidazole-4,1′-naphthalen]-5(1H)-one] showed an IC50 of 76.7 nM.

`CN1C(=O)C2(N=C1N)c1cc(-c3cncnc3)ccc1CCC2(C)C` (stereo not drawn) [Example 27, 2-amino-1,2′,2′-trimethyl-7′-(pyrimidin-5-yl)-3′,4′-dihydro-TH-spiro[imidazole-4,1′-naphthalen]-5(1H)-one] displayed a half-maximal inhibitory concentration (IC50) of 10.1 nM. This IC50 is about 7.6-fold lower than that of the compound before.

Compound `CN1C(=O)C2(CC3(CCC3)Cc3ccc(-c4cccc(Cl)c4)cc32)N=C1N` (stereo not drawn) [Example 37, 2-amino-7′-(3-chlorophenyl)-1-methyl-5-oxo-3′,4′-dihydro-2′H-dispiro[imidazol-4,1′-naphthalen-3′,1″-cyclobutyl]-5 (1H)-one] displayed an IC50 of 241 nM.

As for `CN1C(=O)[C@]2(C[C@@](C)(CO)Cc3ccc(-c4cc(F)cc(Cl)c4)cc32)N=C1N` [Example 144, (1′R,3′S)-2-amino-7′-(3-chloro-5-fluorophenyl)-3′-(hydroxymethyl)-1,3′-dimethyl-3′,4′-dihydro-2′H-spiro[imidazole-4,1′-naphthalen]-5(1H)-one], the IC50 was found to be 3.3 nM.

For `CN1C(=O)[C@@]2(N=C1N)c1cc(-c3cccc(Cl)c3)ccc1CC[C@@H]2CC1CCN(CC(F)F)CC1` [Example 62, (1′S,2′R)-2-amino-7′-(3-chlorophenyl)-2′-((1-(2,2-difluoroethyl)piperidin-4-yl)methyl)-1-methyl-3′,4′-dihydro-2′H-spiro[imidazole-4,1′-naphthalen]-5(1H)-one], the IC50 amounted to 306 nM.

`CN1C(=O)C2(N=C1N)c1cc(-c3cccnc3F)ccc1CC(C)(C)C2F` (stereo not drawn) [Example 156, 2-amino-2′-fluoro-7′-(2-fluoropyridin-3-yl)-1,3′,3′-trimethyl-3′,4′-dihydro-2′H-spiro[imidazole-4,1′-naphthalen]-5(1H)-one] gave an IC50 of 17.2 nM.

As for `CN1C(=O)C2(N=C1N)c1cc(-c3cccc(C#N)c3)ccc1CCC2(C)C` (stereo not drawn) [Example 28, 3-(2-amino-1,2′,2′-trimethyl-5-oxo-1,3′,4′,5-tetrahydro-2′H-spiro[imidazole-4,1′-naphthalene]-7′-yl)benzonitrile], half-maximal inhibition (IC50) was put at 92.5 nM.

In the case of `CC1(C)Cc2ccc(-c3cncnc3)cc2C2(CSC(N)=N2)C1` (stereo not drawn) [Example 109, 3,3-dimethyl-7-(pyrimidin-5-yl)-3,4-dihydro-2H,5′H-spiro[naphthalene-1,4′-thiazol]-2′-amine], the IC50 was determined as 482 nM.
